Data taken from PMC7450057, “Enhancing intracellular accumulation and target engagement of PROTACs with reversible covalent chemistry” (Nature Communications, 2020).
Values joined by “and” are separate entries in the source; they are usually repeats but may differ in a detail not shown here. Identical values can stand only once.

Tests used:
[1] = molecular target: BTK (Homo sapiens, UniProt Q06187); assay: In vitro BTK kinase assay (PhosphoSens); format: biochemical; set-up: purchased SignalChem B10-10H-10
Method: BTK kinase activity inhibition IC50 was measured by PhosphoSens® Kinase Assay Kit (Assay Quant Technologies Inc., Cat.# CSKS-AQT0101K). […] Active recombinant BTK was purchased from SignalChem (Cat.# B10-10H-10). All the drugs (3 warhead control and 4 PROTACs) were dissolved in DMSO (10 mM). […] To calculate the IC50, subtract the background fluorescence determined with the “no kinase” control for each time point from the total signal to obtain corrected Relative Fluorescence Units (RFU) values. Plot the corrected RFU vs. Time for each inhibitor concentration and determine the initial reaction rates (slope of the linear portion) for each progress curve for each inhibitor concentration. Then plot velocity (RFU corrected/minute) vs [inhibitor] and determine the IC50 using a 4-parameter logistic fit.

[2] = test system: MOLM-14 cells; assay: AlamarBlue cell viability assay, MOLM-14; settings: for Cell viability, MOML-14: Supplementary Figure 7, replicates
Method: The IC50 was calculated using GraphPad Prism software with a four-parameter dose-response curve fit.

[3] = molecular target: T1, NanoLuc-CRBN fusion (Homo sapiens, UniProt Q96SW2); assay: NanoBRET CRBN in-cell target engagement assay; format: cell-based; settings: for NanoBRET(%): Figure 3h, replicates
T1 construct: host or cells: HEK 293T/17
Method: The target engagement assay for BTK or CRBN was from Promega (BTK kit, Cat. No. N2500; CRBN kit, Cat. No. CS1810C136) and was performed according to the manufacture’s instruction with some modifications. […] After 2 h incubation, the 3X Nano-Glo® Substrate with NanoLuc® extracellular inhibitor were added to cells and developed for 3 min at room temperature. BRET signals were collected using a BioTek SYNERGY H1 microplate reader equipped with a 450/80-nm BP filter for donor emission and a 610-nm LP filter for acceptor emission. BRET Ratio was calculated with the equation: [(Acceptor sample/Donor sample)–(Acceptor no tracer control/Donor no tracer control)] × 1000. The IC50 of the compound against its BTK or CRBN tracer was calculated using GraphPad Prism software.

[4] = molecular target: T2, BTK-NanoLuc fusion (Homo sapiens, UniProt Q06187); assay: NanoBRET BTK in-cell target engagement assay; format: cell-based; settings: for IC50: HEK-293 cells, BTK tracer 1.0 µM, Table 1 / Fig. 3c, triplicates, read-out: BTK TE IC50,TE; for K′P,D (relative intracellular accumulation coefficient): Kd (BTK)/IC50,TE (BTK); for intracellular accumulation of RC-1 relative to the compound: from K′P,D values, BTK (Table 1)
T2 construct: host or cells: HEK 293T/17
Method: The target engagement assay for BTK or CRBN was from Promega (BTK kit, Cat. No. N2500; CRBN kit, Cat. No. CS1810C136) and was performed according to the manufacture’s instruction with some modifications. Briefly, HEK 293/T17 cells (ATCC) were transiently transfected with BTK-NanoLuc® fusion vector or NanoLuc®-CRBN fusion vector (Promega) in 0.125 M CaCl2 and 1x HBS. Forty-eight hours after transfection, the cells were resuspended in Opti-MEM medium (Life Technologies, Cat. No. 11058021) at the density of 2 × 10^5 cells per mL and were plated into 96-well plates (Corning, Cat. No. CLS3600). Cells were incubated with 1.0 µM (BTK) or 0.5 µM (CRBN) NanoBRET™ Tracer and serially diluted unlabeled BTK PROTAC compounds (from 10 to 0.0032 µM, 5-fold dilution) for 2 h at 37 °С with 5% CO2 in an incubator. After 2 h incubation, the 3X Nano-Glo® Substrate with NanoLuc® extracellular inhibitor were added to cells and developed for 3 min at room temperature. BRET signals were collected using a BioTek SYNERGY H1 microplate reader equipped with a 450/80-nm BP filter for donor emission and a 610-nm LP filter for acceptor emission. BRET Ratio was calculated with the equation: [(Acceptor sample/Donor sample)–(Acceptor no tracer control/Donor no tracer control)] × 1000. The IC50 of the compound against its BTK or CRBN tracer was calculated using GraphPad Prism software.

[5] = molecular target: T3, full-length BTK protein (Homo sapiens, UniProt Q06187); assay: BTK binding assay (Kd, Eurofins DiscoverX); settings: for Kd: full-length BTK, standard assay buffer in the presence of DTT (6 mM) (DiMe compounds: BTK_+DTT per Supplementary Data 1), duplicates
T3 construct: Kd was measured using the full-length BTK protein by Eurofins DiscoverX; T7 phage fusion or DNA tag for qPCR (generic vendor protocol); purchased Eurofins DiscoverX
Method: The dissociation equilibrium constant Kd was measured using the full-length BTK protein by Eurofins DiscoverX according to the following protocol: kinase-tagged T7 phage strains were prepared in an E. coli host derived from the BL21 strain. E. coli were grown to log-phase and infected with T7 phage and incubated with shaking at 32 °C until lysis. The lysates were centrifuged and filtered to remove cell debris. The remaining kinases were produced in HEK-293 cells and subsequently tagged with DNA for qPCR detection. […] The liganded beads were blocked with excess biotin and washed with blocking buffer (SeaBlock (Pierce), 1% BSA, 0.05% Tween 20, 1 mM DTT) to remove unbound ligand and to reduce non-specific binding. […] Test compounds were prepared as 111X stocks in 100% DMSO. […] The compounds were then diluted directly into the assays such that the final concentration of DMSO was 0.9%. All reactions performed in polypropylene 384-well plate. Each was a final volume of 0.02 mL. […] The kinase concentration in the eluates was measured by qPCR. For kinase-binding constant determination, an 11-point 3-fold serial dilution of each test compound was prepared in 100% DMSO at 100x final test concentration and subsequently diluted to 1x in the assay (final DMSO concentration = 1%). […] Binding constants (Kd values) were calculated with a standard dose-response curve using the Hill equation: Response=Background+Signal−Background/1+KdHillSlope/Dose^HillSlope
The Hill Slope was set to −1. Curves were fitted using a non-linear least square fit with the Levenberg-Marquardt algorithm.

T1 sequence (Q96SW2 whole entry, the tested form may be a part): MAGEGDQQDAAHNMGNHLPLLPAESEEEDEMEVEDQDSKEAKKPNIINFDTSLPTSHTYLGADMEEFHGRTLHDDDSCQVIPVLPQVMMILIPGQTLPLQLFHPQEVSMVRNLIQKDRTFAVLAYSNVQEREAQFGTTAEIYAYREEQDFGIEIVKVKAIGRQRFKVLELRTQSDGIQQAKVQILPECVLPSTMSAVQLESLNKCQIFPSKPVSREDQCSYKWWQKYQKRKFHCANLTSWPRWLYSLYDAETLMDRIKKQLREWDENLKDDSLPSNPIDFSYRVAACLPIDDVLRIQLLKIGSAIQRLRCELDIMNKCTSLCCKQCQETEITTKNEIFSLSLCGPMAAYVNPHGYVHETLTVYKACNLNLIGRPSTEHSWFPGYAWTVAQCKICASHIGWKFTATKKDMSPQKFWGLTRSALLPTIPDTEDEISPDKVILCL
T1 sequence (Q16531 whole entry partner, the tested form may be a part): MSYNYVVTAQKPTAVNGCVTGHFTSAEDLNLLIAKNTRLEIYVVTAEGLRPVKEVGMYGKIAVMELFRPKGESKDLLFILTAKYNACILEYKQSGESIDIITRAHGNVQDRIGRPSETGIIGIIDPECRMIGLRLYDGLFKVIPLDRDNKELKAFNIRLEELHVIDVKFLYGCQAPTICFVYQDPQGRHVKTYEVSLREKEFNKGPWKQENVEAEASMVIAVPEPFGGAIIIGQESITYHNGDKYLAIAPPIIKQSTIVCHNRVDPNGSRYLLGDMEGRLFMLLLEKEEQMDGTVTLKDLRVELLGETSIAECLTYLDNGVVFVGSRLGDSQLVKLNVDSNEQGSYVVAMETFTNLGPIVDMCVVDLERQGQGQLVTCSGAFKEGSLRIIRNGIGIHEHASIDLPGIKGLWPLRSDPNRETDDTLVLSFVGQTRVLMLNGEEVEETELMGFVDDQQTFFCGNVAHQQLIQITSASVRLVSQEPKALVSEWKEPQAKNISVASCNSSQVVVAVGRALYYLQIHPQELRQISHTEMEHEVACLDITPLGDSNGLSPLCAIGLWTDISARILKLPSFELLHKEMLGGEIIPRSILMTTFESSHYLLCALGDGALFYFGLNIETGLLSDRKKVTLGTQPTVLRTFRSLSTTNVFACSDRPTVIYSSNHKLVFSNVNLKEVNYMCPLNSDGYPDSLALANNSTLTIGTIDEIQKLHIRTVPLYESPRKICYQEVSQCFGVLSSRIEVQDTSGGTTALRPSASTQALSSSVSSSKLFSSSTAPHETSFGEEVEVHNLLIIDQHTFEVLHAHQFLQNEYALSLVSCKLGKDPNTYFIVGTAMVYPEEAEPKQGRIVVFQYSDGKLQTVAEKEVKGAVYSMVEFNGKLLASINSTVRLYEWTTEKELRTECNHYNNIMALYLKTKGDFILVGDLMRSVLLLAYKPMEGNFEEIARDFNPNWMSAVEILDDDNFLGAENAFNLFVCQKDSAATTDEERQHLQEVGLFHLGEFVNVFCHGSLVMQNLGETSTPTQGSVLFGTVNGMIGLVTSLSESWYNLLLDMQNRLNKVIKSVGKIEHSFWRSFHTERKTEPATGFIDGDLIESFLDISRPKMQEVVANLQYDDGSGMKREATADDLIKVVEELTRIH
T2 sequence (Q06187 whole entry, the tested form may be a part): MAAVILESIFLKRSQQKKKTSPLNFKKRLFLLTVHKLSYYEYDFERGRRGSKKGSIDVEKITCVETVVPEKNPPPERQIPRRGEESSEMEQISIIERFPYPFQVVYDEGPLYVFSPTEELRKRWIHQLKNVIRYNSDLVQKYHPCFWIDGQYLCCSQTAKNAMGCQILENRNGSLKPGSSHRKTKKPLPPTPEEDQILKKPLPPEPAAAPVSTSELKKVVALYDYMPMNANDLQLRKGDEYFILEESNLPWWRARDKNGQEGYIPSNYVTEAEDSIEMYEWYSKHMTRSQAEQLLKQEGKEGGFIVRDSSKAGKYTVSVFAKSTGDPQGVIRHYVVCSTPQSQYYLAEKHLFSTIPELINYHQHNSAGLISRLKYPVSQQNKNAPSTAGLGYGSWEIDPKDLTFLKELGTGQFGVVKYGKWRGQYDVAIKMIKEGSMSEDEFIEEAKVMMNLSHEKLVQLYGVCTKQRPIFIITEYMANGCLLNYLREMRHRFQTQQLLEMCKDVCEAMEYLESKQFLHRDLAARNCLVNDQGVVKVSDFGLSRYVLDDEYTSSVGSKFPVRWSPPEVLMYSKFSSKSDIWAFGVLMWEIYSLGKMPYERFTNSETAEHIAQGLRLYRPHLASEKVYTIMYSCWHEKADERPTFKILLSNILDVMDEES
T3 sequence (Q06187 whole entry, the tested form may be a part): as above
Sequence of BTK (Q06187 whole entry): as the sequence (Q06187 whole entry, the tested form may be a part) above

CCC(=O)N1CCCC(n2nc(-c3ccc(Oc4ccccc4)cc3)c3c(N)ncnc32)C1 (centres unmarked) [RNC-Ctrl]
IC50 [1]: 0.0136 µM
activity at 12.8 pM ([1]; Supplementary Figure 5, drug concentration 12.8 pM, replicates, read-out: Inhibition(%)): 94.1%
activity at 64 pM ([1]; Supplementary Figure 5, drug concentration 64 pM, replicates, read-out: Inhibition(%)): 94%
activity at 0.00032 µM ([1]; Supplementary Figure 5, drug concentration 320 pM, replicates, read-out: Inhibition(%)): 92.7%
activity at 0.0016 µM ([1]; Supplementary Figure 5, drug concentration 1600 pM, replicates, read-out: Inhibition(%)): 83.1%
activity at 0.008 µM ([1]; Supplementary Figure 5, drug concentration 8000 pM, replicates, read-out: Inhibition(%)): 62.4%
activity at 0.04 µM ([1]; Supplementary Figure 5, drug concentration 40000 pM, replicates, read-out: Inhibition(%)): 29.6%
activity at 0.2 µM ([1]; Supplementary Figure 5, drug concentration 200000 pM, replicates, read-out: Inhibition(%)): 9.18%
activity at 1 µM ([1]; Supplementary Figure 5, drug concentration 1000000 pM, replicates, read-out: Inhibition(%)): 3.99%
reduction of BTK inhibition activity compared with IRC-Ctrl ([1]; ratio of IC50 values): 45 folds
activity at 2.56 pM ([1]; read-out: Inhibition(%), Supplementary Figure 5, drug concentration 2.56 pM, replicates): 110%
IC50 ([2]; Homo sapiens, MOLM-14, 72 h, read-out: Cell viability IC50): 0.42 µM
Cell viability, MOML-14 ([2]; drug concentration 1.00E-05 M): 9.88 and 4.549 and 8.014 and 2.825 and 3.518
Cell viability, MOML-14 ([2]; drug concentration 1.60E-08 M): 95.1882 and 83.3008 and 72.3018 and 73.7944 and 64.519
Cell viability, MOML-14 ([2]; drug concentration 2.00E-06 M): 23.8281 and 18.1065 and 24.6633 and 17.9289 and 14.3751
Cell viability, MOML-14 ([2]; drug concentration 3.20E-09 M): 99.7903 and 102.278 and 76.2998 and 63.1686 and 63.4529
Cell viability, MOML-14 ([2]; drug concentration 4.00E-07 M): 54.0886 and 58.7263 and 56.6474 and 49.4687 and 44.0492
Cell viability, MOML-14 ([2]; drug concentration 6.40E-10 M): 93.8377 and 115.463 and 71.822 and 77.5792 and 66.4558
Cell viability, MOML-14 ([2]; drug concentration 8.00E-08 M): 94.9216 and 79.4804 and 66.9 and 56.8073 and 62.3334

CCCNc1nc(Nc2ccc(C#N)cc2)ncc1C#CCCCNC(=O)[C@H](C)N(C)C(=O)/C=C/CN(C)CCCNC(=O)CCNc1cccc2c1C(=O)N(C1CCC(=O)NC1=O)C2=O (some centres unmarked) [IRC-FLT3]
NanoBRET(%) ([3]; drug concentration 1.00E-05 M): 33.2279% and 26.4905% and 27.0048%
NanoBRET(%) ([3]; drug concentration 1.60E-08 M): 92.7988% and 108.391% and 111.382%
NanoBRET(%) ([3]; drug concentration 2.00E-06 M): 38.4699% and 38.0091% and 38.2395%
NanoBRET(%) ([3]; drug concentration 3.20E-09 M): 129.579% and 139.696% and 92.9737%
NanoBRET(%) ([3]; drug concentration 4.00E-07 M): 76.4349% and 76.1877% and 65.5306%
NanoBRET(%) ([3]; drug concentration 8.00E-08 M): 100.627% and 103.984% and 84.3671%
IC50 ([3]; HEK-293 cells, CRBN tracer 0.5 µM, triplicates, read-out: CRBN target engagement IC50,TE): 1.5 µM

CN(CCCNC(=O)CNc1cccc2c1C(=O)N(C1CCC(=O)NC1=O)C2=O)C(C)(C)/C=C/C(=O)N1CCC[C@@H](n2nc(-c3ccc(Oc4ccccc4)cc3)c3c(N)ncnc32)C1 (some centres unmarked) [IRC-1-DiMe]
IC50 [4]: 0.38 µM
K′P,D (relative intracellular accumulation coefficient) [4]: 2.9 × 10^−2
intracellular accumulation of RC-1 relative to the compound [4]: 5 folds
Signal ([5]; BTK_+DTT, compound concentration 0.0169 nM, listed as IRC-DiMe): 3.35E-05 and 3.58E-05
Signal ([5]; BTK_+DTT, compound concentration 0.152 nM, listed as IRC-DiMe): 3.30E-05 and 3.12E-05
Signal ([5]; BTK_+DTT, compound concentration 0.457 nM, listed as IRC-DiMe): 3.59E-05 and 3.58E-05
Signal ([5]; BTK_+DTT, compound concentration 1.37 nM, listed as IRC-DiMe): 2.65E-05 and 2.79E-05
Signal ([5]; BTK_+DTT, compound concentration 4.12 nM, listed as IRC-DiMe): 2.70E-05 and 2.48E-05
Signal ([5]; BTK_+DTT, compound concentration 12.3 nM): 1.55E-05
Signal ([5]; BTK_+DTT, compound concentration 37 nM, listed as IRC-DiMe): 6.57E-06 and 5.81E-06
Signal ([5]; BTK_+DTT, compound concentration 111 nM, listed as IRC-DiMe): 1.60E-06 and 1.57E-06
Signal ([5]; BTK_+DTT, compound concentration 333 nM, listed as IRC-DiMe): 2.79E-07 and 2.98E-07
Signal ([5]; BTK_+DTT, compound concentration 1000 nM, listed as IRC-DiMe): 9.10E-08 and 8.06E-08
Signal ([5]; BTK_-DTT, compound concentration 12.3 nM): 1.59E-05
Kd [5]: 0.011 µM

CN(CCCNC(=O)CNc1cccc2c1C(=O)N(C1CCC(=O)NC1=O)C2=O)C(C)(C)CC(C#N)C(=O)N1CCC[C@@H](n2nc(-c3ccc(Oc4ccccc4)cc3)c3c(N)ncnc32)C1 (some centres unmarked) [RNC-1-CN-DiMe]
IC50 [4]: 0.93 µM
K′P,D (relative intracellular accumulation coefficient) [4]: 3.1 × 10^−2
intracellular accumulation of RC-1 relative to the compound [4]: 5 folds
Signal ([5]; BTK_+DTT, compound concentration 0.0169 nM, listed as RNC-CN-DiMe): 2.50E-05 and 2.61E-05
Signal ([5]; BTK_+DTT, compound concentration 0.152 nM): 3.53E-05
Signal ([5]; BTK_+DTT, compound concentration 0.457 nM, listed as RNC-CN-DiMe): 3.21E-05 and 2.23E-05
Signal ([5]; BTK_+DTT, compound concentration 1.37 nM, listed as RNC-CN-DiMe): 2.55E-05 and 2.14E-05
Signal ([5]; BTK_+DTT, compound concentration 4.12 nM, listed as RNC-CN-DiMe): 2.68E-05 and 2.21E-05
Signal ([5]; BTK_+DTT, compound concentration 12.3 nM, listed as RNC-CN-DiMe): 2.12E-05 and 1.99E-05
Signal ([5]; BTK_+DTT, compound concentration 37 nM, listed as RNC-CN-DiMe): 1.30E-05 and 9.19E-06
Signal ([5]; BTK_+DTT, compound concentration 111 nM, listed as RNC-CN-DiMe): 5.21E-06 and 4.55E-06
Signal ([5]; BTK_+DTT, compound concentration 333 nM, listed as RNC-CN-DiMe): 1.18E-06 and 1.22E-06
Signal ([5]; BTK_+DTT, compound concentration 1000 nM, listed as RNC-CN-DiMe): 2.41E-07 and 2.28E-07
Signal ([5]; BTK_-DTT, compound concentration 0.152 nM): 2.77E-05
Kd [5]: 0.029 µM
